Test system: patients with inadequately managed, severe chronic low back pain with or without a neuropathic pain component
Assay: Clinical global impression of change (CGIC), same trial
Type: in vivo, human patients
From the text: This was a multicenter, multinational, open-label, effectiveness phase IIIb trial to evaluate effectiveness and safety of tapentadol prolonged release treatment in patients with inadequately managed, severe chronic low back pain with or without a neuropathic pain component. Patients taking WHO Step II analgesics discontinued those analgesics before starting study medication; patients taking Step I analgesics and/or centrally acting co-analgesics continued on the same dose. […] All patients received tapentadol prolonged release (50-250 mg bid) for up to 12 weeks (5-week titration period and a 7-week maintenance period). Tapentadol immediate release (IR) 50 mg (twice a day, hours apart) was permitted (combined total daily dose of tapentadol prolonged release and tapentadol IR, 500 mg/day). The primary efficacy endpoint was the change from Baseline to Week 6 (when tapentadol prolonged release doses were stable) in average pain intensity on the 11-point NRS-3 using the last observation carried forward (LOCF) for imputing missing scores. The painDETECT questionnaire was used to evaluate the likelihood of a neuropathic pain component of low back pain; patients were classified as painDETECT “negative,” “unclear,” or “positive.” The population of patients classified as painDETECT negative was limited to approximately 30% of the total population.
All subjects completed Short Form-36 (SF-36) and EuroQol-5 Dimension (EQ-5D) questionnaires and the Hospital Anxiety and Depression Scale (HADS). The Patient Global Impression of Change (PGIC) and Clinical global impression of change (CGIC) were also used as secondary endpoints. For both tests, patients completed the statement, “since I began trial treatment, I would rate my overall condition as,” using 7 possible responses (“very much worse” to “very much improved”). Adverse events were recorded throughout the trial.

In the case of `CC[C@@H](c1cccc(O)c1)[C@@H](C)CN(C)C` [tapentadol, (−)-(1R,2R)-3-(3-dimethylamino-1-ethyl-2-methyl-propyl)-phenol], the “percentage of patients reporting “very much improved” or “much improved” on the CGIC” value (from here on “percentage”) (Week 1 (26/172)) is reported as 15.1%, the “percentage” value (Week 6 (70/138)) is reported as 50.7% and the “percentage” value (Week 12 (62/91)) is reported as 68.2%.

Reference: US9980927B2, “Use of tapentadol for inhibiting and/or treating depression and anxiety” (Gruenenthal GmbH, priority 2011, dated 2018)
